Experimental findings from ChEMBL document CHEMBL1157697, “Novel ester and acid derivatives of the 1,5-diarylpyrrole scaffold as anti-inflammatory and analgesic agents. Synthesis and in vitro and in vivo biological evaluation” (J Med Chem, 2010) are described below.

The source made the active and inactive calls. The rule behind the calls is not given here. Bounds are passed on as bounds.

Usually IC50 stands for the concentration that gives 50% inhibition. A high value points to weaker potency in that assay.

Series [1] is filed under the species Mus musculus. In words: Selectivity index, ratio of IC50 for mouse COX1 to IC50 for mouse COX2.
Series [2] is described as follows: Metabolic stability in human liver microsomes at 0.1 uM. Also: time not given here. The format is ADME, Microsome. To be noted: read-out: Stability. On the technique in general: Microsomes from liver hold many membrane-bound enzymes, among them those of drug oxidation.
The test system of series [3] is Rattus norvegicus. Kind of series: Antiinflammatory activity against carrageenan-induced paw edema rat inflammatory model assessed as paw pressure at 20 mg/kg, po after 120 mins. The series is classed as functional. For orientation: The carrageenan paw model is a standard test of acute inflammation.
Series [4] has as its target T1, Prostaglandin G/H synthase 2 (Mus musculus, UniProt Q05769).
T1 sequence (Q05769 whole entry): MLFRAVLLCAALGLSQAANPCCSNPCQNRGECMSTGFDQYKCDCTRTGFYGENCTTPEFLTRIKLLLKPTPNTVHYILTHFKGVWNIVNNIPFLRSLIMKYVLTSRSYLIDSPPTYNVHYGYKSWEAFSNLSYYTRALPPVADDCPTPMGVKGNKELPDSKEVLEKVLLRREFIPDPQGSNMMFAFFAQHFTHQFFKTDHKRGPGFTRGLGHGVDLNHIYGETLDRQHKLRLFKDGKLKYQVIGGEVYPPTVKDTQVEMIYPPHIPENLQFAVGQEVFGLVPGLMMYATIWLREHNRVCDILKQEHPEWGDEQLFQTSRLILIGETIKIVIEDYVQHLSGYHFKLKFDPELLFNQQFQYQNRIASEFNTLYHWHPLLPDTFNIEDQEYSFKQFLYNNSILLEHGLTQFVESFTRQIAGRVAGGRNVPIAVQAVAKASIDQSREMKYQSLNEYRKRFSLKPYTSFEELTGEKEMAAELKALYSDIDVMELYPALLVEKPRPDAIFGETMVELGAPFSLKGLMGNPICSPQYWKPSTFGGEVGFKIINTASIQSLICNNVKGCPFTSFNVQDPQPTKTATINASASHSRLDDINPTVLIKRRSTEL
Description: Inhibition of COX2-dependent PGE2 production in LPS-stimulated mouse J774 cells by RIA

In series [5] the test system is Rattus norvegicus. In words: Antiinflammatory activity against carrageenan-induced paw edema rat inflammatory model assessed as paw pressure at 20 mg/kg, po after 60 mins. The series is classed as functional.
The target in series [6] is T2, Prostaglandin G/H synthase 1 (Mus musculus, UniProt P22437).
T2 sequence (P22437 whole entry): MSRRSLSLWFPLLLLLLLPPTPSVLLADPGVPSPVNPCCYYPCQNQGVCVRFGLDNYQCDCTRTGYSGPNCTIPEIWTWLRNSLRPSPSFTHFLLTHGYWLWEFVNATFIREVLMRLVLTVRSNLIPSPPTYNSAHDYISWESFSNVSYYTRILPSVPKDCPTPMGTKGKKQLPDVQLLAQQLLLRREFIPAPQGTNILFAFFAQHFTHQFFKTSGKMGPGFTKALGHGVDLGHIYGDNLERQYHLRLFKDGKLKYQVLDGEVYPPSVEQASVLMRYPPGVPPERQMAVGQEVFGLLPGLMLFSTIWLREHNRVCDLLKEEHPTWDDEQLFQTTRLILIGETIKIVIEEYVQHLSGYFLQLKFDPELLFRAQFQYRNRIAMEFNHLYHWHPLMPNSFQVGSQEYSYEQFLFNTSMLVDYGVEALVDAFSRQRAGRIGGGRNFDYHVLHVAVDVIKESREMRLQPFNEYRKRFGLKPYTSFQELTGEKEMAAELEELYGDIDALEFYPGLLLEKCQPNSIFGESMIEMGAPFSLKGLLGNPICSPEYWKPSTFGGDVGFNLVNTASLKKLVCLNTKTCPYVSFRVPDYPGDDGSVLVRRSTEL
Description: Inhibition of COX1-dependent PGE2 production in LPS-stimulated mouse J774 cells by RIA

Series [7] can be described thus: Metabolic stability in human liver microsomes at 10 uM. Also: time not given here. The series is classed as ADME, Microsome. The note with it: read-out: Stability.
Series [8] deals with Rattus norvegicus. In words: Antiinflammatory activity against carrageenan-induced paw edema rat inflammatory model assessed as paw volume at 20 mg/kg, po after 60 mins. The series is classed as functional.
For series [9], the system named is Rattus norvegicus. Kind of series: Antiinflammatory activity against carrageenan-induced paw edema rat inflammatory model assessed as paw pressure at 20 mg/kg, po after 30 mins. The format is functional.
For series [10], the system named is Rattus norvegicus. In words: Antiinflammatory activity against carrageenan-induced paw edema rat inflammatory model assessed as suppression of paw edema at 20 mg/kg, po after 60 mins. The series is classed as functional.
Series [11] concerns Mus musculus. Kind of series: Analgesic activity against acetic acid-induced mouse abdominal constriction assessed as writhing at 20 mg/kg, po. The note with it: Abdomen. For orientation: An intraperitoneal irritant provokes the stretching counted in writhing tests.

On to `CCCCOC(=O)Cc1cc(-c2ccc(S(C)(=O)=O)cc2)n(-c2ccc(F)c(F)c2)c1C`, for which, in the series filed under Mus musculus [1], the Ratio IC50 is > 3300. Also, the remaining at 0.1 µM in series [2] is 2%. The Activity with Rattus norvegicus [3] turned out to be 56.6 g; in the series on Rattus norvegicus [5] it was 59.2 g; with Rattus norvegicus [8], 1.52 mL; in the series on Rattus norvegicus [9], 52.7 g; with Rattus norvegicus [10], 73.6%. The 50% inhibitory concentration (IC50) in [4] was 30 nM; in [6] it was > 100000 nM. Besides, the remaining at 10 µM in [7] turned out to be 15%. In the series with Mus musculus [11], the result was Active.

In the case of `COc1ccc(-n2c(-c3ccc(S(C)(=O)=O)cc3)cc(CC(=O)OC(C)C)c2C)cc1`, in the series listed under Mus musculus [1], the Ratio IC50 was > 4500. Besides, the remaining at 0.1 µM in series [2] was determined as 7%. For the same compound, the Activity in the series with Rattus norvegicus [3] came out at 41.7 g; in the series on Rattus norvegicus [5], 56.7 g; with Rattus norvegicus [8] it was 1.41 mL; in the series on Rattus norvegicus [9], 51 g; with Rattus norvegicus [10], 77.2%. Moreover, the figures for the IC50 in series [4] and in series [6] were 22 nM and > 100000 nM, respectively. Besides, in series [7], the remaining at 10 µM was 1%.

For the compound `Cc1c(CC(=O)OC(C)C)cc(-c2ccc(S(C)(=O)=O)cc2)n1-c1ccc(F)c(F)c1`, the Ratio IC50 in the series filed under Mus musculus [1] was > 4700. For the same compound, the remaining at 0.1 µM in series [2] was 0%. For the same compound, the Activity worked out at 58.3 g in the series on Rattus norvegicus [3]; 52.3 g in the series with Rattus norvegicus [5]; 1.39 mL in the series on Rattus norvegicus [8]; 64.8 g in the series on Rattus norvegicus [9]; 89% with Rattus norvegicus [10]. Further, the IC50 in [4] was 21 nM; in [6], > 100000 nM. Also, the remaining at 10 µM in series [7] is 13%.

For the compound `Cc1c(CC(=O)O)cc(-c2ccc(S(C)(=O)=O)cc2)n1-c1ccc(F)c(F)c1`, the Ratio IC50 in the series listed under Mus musculus [1] worked out at 38. The remaining at 0.1 µM in [2] turned out to be 100%. For the same compound, the Activity with Rattus norvegicus [3] worked out at 48.6 g; in the series on Rattus norvegicus [5], 54.1 g; in the series on Rattus norvegicus [8], 1.42 mL; in the series on Rattus norvegicus [9], 58.3 g; in the series with Rattus norvegicus [10], 90.9%. Moreover, the IC50 in series [4] turned out to be 260 nM; in [6] it was 10000 nM. Moreover, the remaining at 10 µM in series [7] amounted to 100%. Also, in the series with Mus musculus [11], the result was Active.

On to `CCOC(=O)Cc1cc(-c2ccc(S(C)(=O)=O)cc2)n(-c2ccccc2)c1C`, for which the Ratio IC50 in the series listed under Mus musculus [1] is > 2500.

For the compound `COc1ccc(-n2c(-c3ccc(S(C)(=O)=O)cc3)cc(CC(=O)O)c2C)cc1`, the Ratio IC50 in the series listed under Mus musculus [1] was > 580. Also, the remaining at 0.1 µM in [2] was 77%. Also, the Activity is 36.2 g in the series with Rattus norvegicus [3]; 39.8 g with Rattus norvegicus [5]; 1.81 mL in the series on Rattus norvegicus [8]; 52.3 g in the series on Rattus norvegicus [9]; 50.9% with Rattus norvegicus [10]. Moreover, the IC50 in series [4] is 170 nM; in series [6] it was > 100000 nM. In addition, the remaining at 10 µM in series [7] stood at 84%.

Consider `CCCCOC(=O)Cc1cc(-c2ccc(S(C)(=O)=O)cc2)n(-c2cccc(F)c2)c1C`, for which, in the series listed under Mus musculus [1], the Ratio IC50 is > 4100. Moreover, the remaining at 0.1 µM in series [2] came to 0%. The Activity was determined as 45.2 g with Rattus norvegicus [3]; 46.9 g in the series with Rattus norvegicus [5]; 1.71 mL in the series on Rattus norvegicus [8]; 49.7 g in the series with Rattus norvegicus [9]; 67.2% in the series with Rattus norvegicus [10]. The half-maximal inhibitory concentration (IC50) in [4] is 24 nM; in series [6], > 100000 nM. Moreover, the remaining at 10 µM in [7] came to 2%.

Regarding `CCCCOC(=O)Cc1cc(-c2ccc(S(C)(=O)=O)cc2)n(-c2ccccc2)c1C`, the Ratio IC50 in the series listed under Mus musculus [1] is > 7100. Further, in [2], the remaining at 0.1 µM came to 7%. Further, the Activity amounted to 42.6 g in the series with Rattus norvegicus [3]; 46.3 g in the series with Rattus norvegicus [5]; 1.68 mL in the series on Rattus norvegicus [8]; 52.5 g with Rattus norvegicus [9]; 66.3% in the series on Rattus norvegicus [10]. For the same compound, the 50% inhibitory concentration (IC50) in series [4] was 14 nM; in [6] it was > 100000 nM. Further, the remaining at 10 µM in series [7] is 3%.
